Test results published in PMC11233548 (Communications Biology, 2024).
Non-standard residues stand in square brackets, D forms with d. Residues, ends and D or L forms follow the SMILES beside them. No end group written: not given here. long linker = not defined here; AEEA = NCCOCCOCC(=O)O

What was measured:
Gal1/B-RBD = Gal1/B-RBD (Homo sapiens, UniProt P15056); assay: Gal1/B-RBD BRET in HEK cells; assay type: cell-based
H-RasG12V nanoclustering [1] = assay: H-RasG12V nanoclustering-BRET in HEK cells; assay type: cell-based, human; conditions: n = 3
[2] = test system: Hs 578 T cells (pERK, pAkt); assay: Immunoblot of EGF-induced pERK and pAkt in Hs 578 T; assay type: cell-based, human; conditions: 1–20 µM, 2 h, EGF 200 ng/mL 10 min; HRAS-G12D; n = 3–8
T24 cells (pERK, pAkt) = assay type: cell-based, human; conditions: n = 3–8
[3] = test system: MIA PaCa-2 cells (pERK, pAkt); assay: Immunoblot of EGF-induced pERK and pAkt in MIA PaCa-2; assay type: cell-based, human; conditions: 2 h, EGF 200 ng/mL 10 min; KRAS-G12C; n = 3–8
HEK cells (pERK, pAkt) = assay type: cell-based, human; conditions: 2 h, EGF 200 ng/mL 10 min; n = 3–8
Hs 578 T cells = assay: 2D cell viability (alamarBlue), Hs 578 T; assay type: cell-based, human; conditions: 48 h treatment, n = 3
T24 cells = assay: 2D cell viability (alamarBlue), T24; assay type: cell-based, human; conditions: 48 h treatment, n = 3
MIA PaCa-2 cells = assay: 2D cell viability (alamarBlue), MIA PaCa-2; assay type: cell-based, human; conditions: 48 h treatment, n = 3
[4] = test system: Hs 578 T, T24, MIA PaCa-2, and HEK cells; assay: Drug sensitivity score DSS3 from viability data; assay type: cell-based, human; conditions: 48 h; Fig. 6e
Experimental: The cells were seeded in low attachment, suspension cell culture 96-well plates (Greiner, #655185). About 2000 T24, MIA PaCa-2, and HEK cells and 5000 Hs 578 T cells were seeded per well in a 50 µL complete growth medium. 24 h later, the cells were treated with 50 µL 2× peptide diluted in the growth medium or 0.2% (v/v) of the positive control, benzethonium chloride stock at 100 mM in H2O (Sigma-Aldrich, #B8879). […] Using a CLARIOstar plate reader the fluorescence signal (λexcitation 560 ± 5 nm and λemission 590 ± 5 nm) was recorded. The florescence signal was normalized against the negative control, here DMSO in buffer, representing 100% viability. Additionally, the data was analyzed using Breeze 2.0 to determine a drug sensitivity score (DSS), a normalized area under the curve (AUC). Here we plot only one of the output values from the Breeze pipeline, the DSS3 value, which was calculated as DSS3=DSS2x2−x1/Cmax−Cmin where DSS2 is given by the equation DSS2=DSS1/loga
And DSS1 is given by the equation DSS1=AUC−t(x2−x1)/(100−t)(Cmax−Cmin)
After dose–response inhibition data fitting with a logistic function, the area under the curve (AUC) was determined. The activity threshold (t) was set to ≥10%. The maximum (Cmax) and minimum (Cmin) concentrations used for screening of the inhibitors, with Cmax = x2 and x1 concentration with minimal activity t. […]

H-RasG12V nanoclustering [5] = assay: Electron microscopy-based analysis of H-RasG12V nanoclustering in BHK cells; assay type: cell-based, baby hamster kidney (BHK) cells; conditions: membrane sheets of Gal1-expressing BHK cells; n = 15
Source text: To quantify the nanoclustering of a component integral to the plasma membrane (PM), the apical PM sheets of baby hamster kidney (BHK) cells expressing a GFP-tagged H-Ras construct were fixed with 4% (w/v) PFA and 0.1% (w/v) glutaraldehyde. GFP anchored to the PM sheets was probed with 4.5 nm gold particles pre-coupled to anti-GFP antibody. Following embedment with methyl cellulose, the PM sheets were imaged using transmission electron microscopy (JEOL JEM-1400). Using the coordinates of every gold particle, Ripley’s K-function calculated the extent of nanoclustering of gold particles within a selected 1 μm^2 PM area: K(r)=An^−2∑i≠jwij1(∥xi−xj∥≤r) Lr−r=Kr/π−r where n gold particles populate in an intact area of A; r is the length between 1 and 240 nm; || ^. || indicates Euclidean distance where 1(^.) = 1 if ||xi − xj|| ≤ r and 1(^.) = 0 if ||xi − xj|| > r; K(r) specifies the univariate K-function. wij^−1 is a parameter used for an unbiased edge correction and characterizes the proportion of the circumference of a circle that has the center at xi and radius ||xi-xj||. Monte Carlo simulations estimate the 99% confidence interval (99% C.I.), which is then used to linearly transform K(r) into L(r) − r. On a nanoclustering curve of L(r) − r vs. r, the peak L(r) − r value is used as summary statistics for nanoclustering and is termed as Lmax. […]

B-Raf = assay: SNAP-tag mediated pull-down from HEK lysates, B-Raf; assay type: binding, human cell line HEK293-EBNA; conditions: lysates of Gal1-transfected HEK cells; n = 4
Experimental: (§1) For the pull-down of interactors of L5UR-SNAP and control constructs, HEK293 EBNA cells were plated on 10 cm dishes. For each dish, 5 µg of pDest305-CMV-hGal1 and pEF-L5UR-SNAP, pEF-mutL5UR-SNAP, or pEF-SNAP were transfected. Transfection was done at ≥70% confluency using 2 µL jetPRIME per 1 µg DNA transfected, according to the manufacturer’s instructions. After about 24 h, the growth medium was removed, cells were rinsed twice in cold PBS, and each dish was lysed in 1 mL lysis buffer, consisting of 20 mM HEPES pH 7.5, 4 mM β-mercaptoethanol, 0.05% Igepal, 1× Protease Inhibitor (Thermo Scientific, #A32955) and 1× PhosSTOP (Roche, #04 906 837 001). The cells were scraped and transferred to Eppendorf tubes, then incubated on ice for 30 min, with occasional mixing by inverting the tube. The lysate was cleared by centrifugation for 15 min at 4 °C and 16,363 rcf. Cleared lysate was transferred to a clean tube, 15 µL sample was withdrawn as “Input” for Western blot analysis, and 25 µL of SNAP-capture magnetic beads (New England Biolabs, #S9145S) suspension (diluted 1:1 in lysis buffer) was added. The samples were further incubated for 2 h at room temperature (20–25 °C) on a rotating wheel. […] The samples were resolved on 4–20% SDS-PAGE gels in Tris-Gly buffer and analyzed by Western blotting. […]

C-Raf = assay: SNAP-tag mediated pull-down from HEK lysates, C-Raf; assay type: binding, human cell line HEK293-EBNA; conditions: lysates of Gal1-transfected HEK cells; n = 4
Experimental: as §1

[6] = test system: catalytic subunit of PI3Kα; assay: SNAP-tag mediated pull-down from HEK lysates, PI3Kα catalytic subunit; assay type: binding, human cell line HEK293-EBNA; conditions: lysates of Gal1-transfected HEK cells; n = 4
Experimental: as §1

ASPP2 = assay: SNAP-tag mediated pull-down from HEK lysates, ASPP2; assay type: binding, human cell line HEK293-EBNA; conditions: lysates of Gal1-transfected HEK cells; n = 4
Experimental: as §1

RASSF7 = assay: SNAP-tag mediated pull-down from HEK lysates, RASSF7; assay type: binding, human cell line HEK293-EBNA; conditions: lysates of Gal1-transfected HEK cells; n = 4
Experimental: as §1

Gal1 = assay: SNAP-tag mediated pull-down from HEK lysates, Gal1; assay type: binding, human cell line HEK293-EBNA; conditions: lysates of Gal1-transfected HEK cells
Experimental: as §1

Chain of Gal1/B-RBD (P15056 155-227): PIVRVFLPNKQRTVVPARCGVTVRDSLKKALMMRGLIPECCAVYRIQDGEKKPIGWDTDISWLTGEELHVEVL

In the case of `CC(=O)NCC(=O)N[C@@H](CCCNC(=N)N)C(=O)N[C@@H](CCCCN)C(=O)N[C@@H](CCCCN)C(=O)N[C@@H](CCCNC(=N)N)C(=O)N[C@@H](CCCNC(=N)N)C(=O)N[C@@H](CCC(N)=O)C(=O)N[C@@H](CCCNC(=N)N)C(=O)N[C@@H](CCCNC(=N)N)C(=O)N[C@@H](CCCNC(=N)N)C(=O)N1CCC[C@H]1C(=O)N[C@@H](CCC(N)=O)C(=O)NCCOCCOCC(=O)N[C@@H](CO)C(=O)N[C@@H](CCCNC(=N)N)C(=O)N[C@@H](CO)C(=O)N[C@@H](CO)C(=O)N[C@@H](CC(C)C)C(=O)N[C@@H](CCCNC(=N)N)C(=O)N[C@@H](CO)C(=O)N[C@@H](CCCNC(=N)N)C(=O)N[C@@H](Cc1c[nH]c2ccccc12)C(=O)NCC(=O)N[C@@H](CCCNC(=N)N)C(=O)N[C@@H](Cc1ccccc1)C(=O)N[C@@H](CC(C)C)C(=O)N[C@@H](CC(C)C)C(=O)N[C@@H](CCC(N)=O)C(=O)N[C@@H](CCCNC(=N)N)C(=O)NCC(=O)N[C@@H](CO)C(=O)N[C@@H](Cc1c[nH]c2ccccc12)C(=O)N[C@H](C(=O)NCC(=O)N1CCC[C@H]1C(=O)N[C@@H](CCCNC(=N)N)C(N)=O)[C@@H](C)O` [TAT-L5URcore] (Ac-GRKKRRQRRRPQ[AEEA]SRSSLRSRWGRFLLQRGSWTGPR-NH2), the EC50 (Gal1/B-RBD) is reported as 16 ± 1 µM, the EC50 (H-RasG12V nanoclustering [1]; peptide added to HEK cells, 2 h incubation, 37 °C, donor:acceptor 1:5, 200 ng Gal1 plasmid) is reported as 19 ± 1 µM and the “EGF-induced pAkt levels, Hs 578 T” value [2] is reported as “reduced EGF-induced cellular pERK-and pAkt-levels in a dose-dependent manner”. The “EGF-induced pERK levels, Hs 578 T” value [2] was “reduced EGF-induced cellular pERK-and pAkt-levels in a dose-dependent manner”, the “EGF-induced pAkt levels, T24” value (T24 cells (pERK, pAkt)) was “reduced EGF-induced cellular pERK-and pAkt-levels in a dose-dependent manner” and the “EGF-induced pERK levels, T24” value (T24 cells (pERK, pAkt)) was “reduced EGF-induced cellular pERK-and pAkt-levels in a dose-dependent manner”. The “pAkt levels, MIA PaCa-2” value [3] was “pAkt-levels were reduced at 20 µM”, the “pERK levels, MIA PaCa-2” value [3] was “pERK remained unaffected” and the “pAkt levels, HEK” value (HEK cells (pERK, pAkt)) was “slightly induced by TAT-L5URcore, as were pAkt-levels”. The “pERK levels, HEK” value (HEK cells (pERK, pAkt)) was “slightly induced”, the “proliferation/viability, Hs 578 T” value (Hs 578 T cells) was “specifically reduced by TAT-L5URcore” and the “proliferation/viability, T24” value (T24 cells) was “specifically reduced by TAT-L5URcore”. The “proliferation/viability, MIA PaCa-2” value (MIA PaCa-2 cells) was “this was also observed for KRAS-mutant MIA PaCa-2” and the “anti-proliferative effect (DSS3)” value [4] was “higher anti-proliferative effect of TAT-L5URcore as compared to TAT-mutL5URcore”.

In the case of “L5UR-SNAP: genetic construct with SNAP-tag added via a long linker to the C-terminus of L5UR (LLRPTAASQSRALGPGAPGGSSRSSLRSRWGRFLLQRGSWTGPRCWPRGFQS-{long linker-SNAP‑tag}; reading uncertain)”, the “effect of construct expression on Gal1/B-RBD BRET” value (Gal1/B-RBD; expression (48 h), donor:acceptor 1:10, HEK, n = 3) is reported as “dose-dependently decreased BRET between Gal1 and the B-RBD”, the “reduction of H-RasG12V nanoclustering-BRET” value (H-RasG12V nanoclustering [1]; expression (48 h), co-transfection of 200 ng Gal1 plasmid, donor:acceptor 1:5, Fig. 3c) is reported as ~ 33% and the “effect of construct expression on H-RasG12V nanoclustering-BRET” value (H-RasG12V nanoclustering [1]; expression (48 h), with co-transfection of 200 ng Gal1 plasmid, donor:acceptor 1:5) is reported as “decreased Gal1-enhanced H-RasG12V nanoclustering-BRET to a similar extent as the untagged L5UR”. For the same molecule, the “disruption of H-RasG12V nanoclustering (Lmax)” value (H-RasG12V nanoclustering [5]) was “The disruption of H-RasG12V nanoclustering specifically by L5UR-SNAP”, the “pull-down of B-Raf” value (B-Raf) was “pulled down” and the “pull-down of C-Raf” value (C-Raf) was “pulled down”. For the same molecule, the “pull-down of catalytic subunit of PI3Kα” value [6] was “pulled down”, the “pull-down of ASPP2” value (ASPP2) was “it was pulled down by L5UR-SNAP” and the “pull-down of RASSF7” value (RASSF7) was “as were its two RA-domain containing interaction partners, RASSF7 and RASSF9”. The “pull-down of Gal1” value (Gal1) was “does under those conditions not interact with Gal1”.
